Results taken from patent publication US12091425B2 (AMGEN INC., priority 2016, dated 2024).

target: T1, Mcl-1/Bim interaction, recombinant human Mcl-1 (171-327) (Homo sapiens, UniProt Q07820); test: Cell free Mcl-1: Bim Affinity Assay (Mcl-1 HTRF); assay type: binding; conditions: TR-FRET, 0.1 nM Mcl-1 (171-327), 0.05 nM biotin-Bim (51-76)
T1 construct: made in house
Procedure: Cell free Mcl-1: Bim Affinity Assay (Mcl-1 HTRF)
The inhibition of the Mcl-1/Bim interaction was measured using a time-resolved fluorescence resonance energy transfer (TR-FRET) assay. […] A biotinylated peptide derived from human Bim (residues 51-76) was purchased from CPC Scientific (San Jose, CA). The TR-FRET assay was conducted in a 384-well white OptiPlatem (PerkinElmer, Waltham, MA) in a total volume of 40 μL. […] The reaction plates were further incubated overnight and then were read on an Envision® multimode reader (PerkinElmer). […] The IC50 values of test compounds were determined from duplicate data by analyzing competition curves using a four-parameter sigmoidal model in GraphPad Prism (GraphPad Software, San Diego, CA) or in Genedata Screener® (Genedata, Basel, Switzerland).

T1 sequence (Q07820 171-327): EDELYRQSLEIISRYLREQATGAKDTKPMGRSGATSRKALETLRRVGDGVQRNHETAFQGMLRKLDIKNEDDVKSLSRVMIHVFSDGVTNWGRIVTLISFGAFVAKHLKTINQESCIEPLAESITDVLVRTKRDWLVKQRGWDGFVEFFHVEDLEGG

SMILES	IC50
CCOC[C@H]1CC/C=C/[C@H](O)[C@@H]2CC[C@H]2CN2C[C@@]3(CCCc4cc(Cl)ccc43)COc3ccc(cc32)C(=O)NS1(=O)=O (single isomer, unassigned) [Example 440]	2.44 nM
C=C1CC/C=C/[C@H](O)[C@@H]2CC[C@H]2CN2C[C@@]3(CCCc4cc(Cl)ccc43)COc3ccc(cc32)C(=O)NS1(=O)=O (single isomer, unassigned) [Example 441]	0.632 nM
COCC[C@@H]1CC/C=C/[C@H](O)[C@@H]2CC[C@H]2CN2C[C@@]3(CCCc4cc(Cl)ccc43)COc3ccc(cc32)C(=O)NS1(=O)=O (single isomer, unassigned) [Example 442]	0.292 nM
COCC[C@H]1CC/C=C/[C@H](O)[C@@H]2CC[C@H]2CN2C[C@@]3(CCCc4cc(Cl)ccc43)COc3ccc(cc32)C(=O)NS1(=O)=O (single isomer, unassigned) [Example 443]	1.51 nM
O=C1NS(=O)(=O)[C@H](CO)CC/C=C/[C@H](O)[C@@H]2CC[C@H]2CN2C[C@@]3(CCCc4cc(Cl)ccc43)COc3ccc1cc32 (single isomer, unassigned) [Example 445]	0.461 nM
COCCOCC1CCC=CC(O)C2CCC2CN2CC3(CCCc4cc(Cl)ccc43)COc3ccc(cc32)C(=O)NS1(=O)=O (single isomer, unassigned) [Example 447]	0.378 nM
COCCOC[C@@H]1CC/C=C/[C@H](O)[C@@H]2CC[C@H]2CN2C[C@@]3(CCCc4cc(Cl)ccc43)COc3ccc(cc32)C(=O)NS1(=O)=O (single isomer, unassigned) [Example 448]	0.951 nM
O=C1NS(=O)(=O)C(CO)CCC=CCC2CCC2CN2CC3(CCCc4cc(Cl)ccc43)COc3ccc1cc32 (single isomer, unassigned) [Example 450]	6.76 nM
O=C1NS(=O)(=O)[C@@H](CO)CC/C=C\C[C@@H]2CC[C@H]2CN2C[C@@]3(CCCc4cc(Cl)ccc43)COc3ccc1cc32 (single isomer, unassigned) [Example 451]	11.5 nM

same assay, conditions: cell free Mcl-1:Bim TR-FRET, recombinant human Mcl-1 (171-327)

SMILES	IC50
O=C1NS(=O)(=O)CCC/C=C/C[C@@H]2CC[C@H]2CN2C[C@@]3(CCCc4cc(Cl)ccc43)COc3ccc1cc32 (single isomer, unassigned) [Example 495]	2.48 nM
O=C1NS(=O)(=O)C/C=C\CCC[C@@H]2CC[C@H]2CN2C[C@@]3(CCCc4cc(Cl)ccc43)COc3ccc1cc32 (single isomer, unassigned) [Example 497]	4 nM
O=C1NS(=O)(=O)C/C=C/CCC[C@@H]2CC[C@H]2CN2C[C@@]3(CCCc4cc(Cl)ccc43)COc3ccc1cc32 (single isomer, unassigned) [Example 498]	9.03 nM
O=C1NS(=O)(=O)C/C=C/[C@H](O)CC[C@@H]2CC[C@H]2CN2C[C@@]3(CCCc4cc(Cl)ccc43)COc3ccc1cc32 (single isomer, unassigned) [Example 500]	7.08 nM
O=C1NS(=O)(=O)C/C=C/[C@@H](O)CC[C@@H]2CC[C@H]2CN2C[C@@]3(CCCc4cc(Cl)ccc43)COc3ccc1cc32 (single isomer, unassigned) [Example 501]	1.49 nM
O=C1NS(=O)(=O)CCC[C@H](O)CC[C@@H]2CC[C@H]2CN2C[C@@]3(CCCc4cc(Cl)ccc43)COc3ccc1cc32 (single isomer, unassigned) [Example 502, (1S,3′R,6′S,9′R)-6-chloro-9′-hydroxy-3,4-dihydro-2H,15′H-spiro[naphthalene-1,22′-[20]oxa[13]thia[1,14]diazatetracyclo[14.7.2.0^3,6.0^19,24]pentacosa [16,18,24]trien]-15′-one 13′,13′-dioxide or (1S,3′R,6′S,9′S)-6-chloro-9′-hydroxy-3,4-dihydro-2H,15′H-spiro[naphthalene-1,22′-[20]oxa[13]thia[1,14]diazatetracyclo[14.7.2.0^3,6.0^19,24]pentacosa [16,18,24]trien]-15′-one 13′,13′-dioxide]	2.31 nM
